The text below walks through data of patent US9688695B2, “Imidazothiadiazole and imidazopyrazine derivatives as protease activated receptor 4 (PAR4) inhibitors for treating platelet aggregation” (BRISTOL-MYERS SQUIBB COMPANY, priority 2012, dated 2017).

In test [1] the target is T1, PAR4 (Homo sapiens (Human), UniProt Q96RI0). As to the kind of experiment: FLIPR assay in PAR4-expressing HEK293 cells (PAR4 antagonist activity, calcium mobilization). The format is cell-based. Particulars: H-Ala-Phe(4-F)-Pro-Gly-Trp-Leu-Val-Lys-Asn-Gly-NH2-induced calcium mobilization. The essentials:
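HEK293 EBNA cells stably expressing human PAR4 (also endogenous PAR1) preincubated 30 min at room temperature with compound in HBSS/10 mM HEPES, 0.67% DMSO final. PAR4 agonist peptide then added and intracellular calcium mobilization monitored by fluorescence.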

In test [2] the target is T1, PAR4. Nature of the test: Gamma thrombin induced platelet aggregation assay (PRP assay). The format is cell-based. Particulars: human platelet rich plasma, 96-well microplate. On the procedure:
Platelet aggregation can be monitored in a 96-well microplate aggregation assay format or using standard platelet aggregometer.
The platelet rich plasma was isolated by centrifugation at 170 g for 14 minutes.
The ability of the compounds of the current invention to inhibit platelet aggregation induced by gamma-thrombin was tested in a 96-well microplate aggregation assay format. Briefly, PRP or washed platelet suspension (100 μl) was pre-incubated for 5 minutes at room temperature with varying concentrations of compounds. Aggregation was initiated by ˜10-50 nM gamma thrombin (Haematologic Technologies, Essex Junction, Vt.), which was titrated daily to achieve 80% platelet aggregation. Refludan at 1 U/mL (Berlex, Montville, N.J.) was added to the gamma thrombin sample to prevent PAR1 activation induced by residual alpha-thrombin contamination. The plate was then placed into a 37° C. Molecular Devices (Sunnyvale, Calif.) SPECTRAMAX® Plus Plate Reader. […] The plate also included an untreated control sample which served as ODmax, while buffer containing no platelets was the ODmin. Platelet aggregation was determined by subtracting the ODmax from the ODmin for the 100% aggregation value. In experimental samples, the observed transmission was subtracted from the minimum value and then compared to the 100% aggregation value to determine the percentage aggregation. IC50 values are determined using Excel Fit software.

T1 sequence (Q96RI0 18-385): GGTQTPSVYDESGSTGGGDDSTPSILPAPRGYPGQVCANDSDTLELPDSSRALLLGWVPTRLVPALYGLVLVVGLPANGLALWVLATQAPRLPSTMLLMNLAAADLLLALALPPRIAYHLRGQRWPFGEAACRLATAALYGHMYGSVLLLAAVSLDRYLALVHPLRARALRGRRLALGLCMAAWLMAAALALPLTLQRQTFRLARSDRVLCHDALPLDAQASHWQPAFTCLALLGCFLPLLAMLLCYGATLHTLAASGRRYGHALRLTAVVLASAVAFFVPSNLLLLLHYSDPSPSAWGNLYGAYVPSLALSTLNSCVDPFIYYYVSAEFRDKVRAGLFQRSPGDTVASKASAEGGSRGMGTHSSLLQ

For orientation: EC50 means the concentration giving half of the maximal effect. A word on the IC50: it is the concentration that gives 50% inhibition. A lower IC50 goes with greater potency in that assay. As for `COCCOCc1nc(COc2cc(OC)cc3oc(-c4cn5nc(OC)sc5n4)cc23)cs1` [Example 6, 2-Methoxy-6-(6-methoxy-4-((2-((2-methoxyethoxy)methyl)thiazol-4-yl)methoxy)benzofuran-2-yl)imidazo[2,1-b][1,3,4]thiadiazole], the half-maximal effective concentration (EC50) at PAR4 [1] was 0.68 nM. For the same compound, the IC50 against PAR4 [2] was found to be 2030 nM.
The matching figures for `COc1cc(OCc2cscn2)c2cc(-c3cn4nc(OC)sc4n3)oc2c1` [Example 34]: 1.2 nM and 2320 nM.
`COCCN(C)C(=O)c1ccc(-c2nc(COc3cc(OC)cc4oc(-c5cn6nc(OC)sc6n5)cc34)cs2)cc1` [Example 39]: the EC50 at PAR4 [1] was 0.46 nM. At PAR4 [2], this compound showed an IC50 of 2.1 nM.
The matching figures for `CCc1sc(-c2ccc(C(=O)N(C)C)cc2)nc1COc1cc(OC)cc2oc(-c3cn4nc(OC)sc4n3)cc12` [Example 44, 4-(5-Ethyl-4-(((6-methoxy-2-(2-methoxyimidazo[2,1-b][1,3,4]thiadiazol-6-yl)benzofuran-4-yl)oxy)methyl)thiazol-2-yl)-N,N-dimethylbenzamide]: 0.9 nM and 2 nM.
The matching figures for `COc1cc(OCc2nc(-c3ccc(C(=O)N(C)CC#N)cc3)sc2C)c2cc(-c3cn4nc(OC)sc4n3)oc2c1` [Example 48, N-(Cyanomethyl)-4-(4-(((6-methoxy-2-(2-methoxyimidazo[2,1-b][1,3,4]thiadiazol-6-yl)benzofuran-4-yl)oxy)methyl)-5-methylthiazol-2-yl)-N-methylbenzamide]: 0.51 nM and 1.2 nM.
The matching figures for `COc1cc(OCc2csc(-c3ccnc(F)c3)n2)c2cc(-c3cn4nc(OC)sc4n3)oc2c1` [Example 67]: 0.34 nM and 2.2 nM.
Take `COc1cc(OCc2csc(-c3ccc(F)nc3)n2)c2cc(-c3cn4nc(OC)sc4n3)oc2c1` [Example 73]: on PAR4 [1], the EC50 stood at 0.35 nM. In addition, the IC50 at PAR4 [2] was found to be 1.9 nM.
The matching figures for `COc1cc(OCc2csc(-c3ccc(C)nc3)n2)c2cc(-c3cn4nc(OC)sc4n3)oc2c1` [Example 74]: 0.56 nM and 0.96 nM.
The matching figures for `COc1cc(OCc2nc(-c3cccc(CO)c3)sc2C)c2cc(-c3cn4nc(OC)sc4n3)oc2c1` [Example 77]: 1 nM and 1.9 nM.
`COc1cc(OCc2csc(-c3ccc(Cl)nc3)n2)c2cc(-c3cn4nc(OC)sc4n3)oc2c1` [Example 80]: the EC50 on PAR4 [1] was 0.74 nM. This compound also returned a half-inhibitory concentration (IC50) against PAR4 [2] of 0.94 nM.
Turning to `COc1cc(OCc2nc(N)sc2C)c2cc(-c3cn4nc(OC)sc4n3)oc2c1` [Example 87, 4-(((6-Methoxy-2-(2-methoxyimidazo[2,1-b][1,3,4]thiadiazol-6-yl)benzofuran-4-yl)oxy)methyl)-5-methylthiazol-2-amine], the EC50 on PAR4 [1] came to 24 nM. The same compound came in with an IC50 on PAR4 [2] above 3000 nM.
The matching figures for `COc1cc(OCc2nc(N3CC4CCC(C3)O4)sc2C)c2cc(-c3cn4nc(OC)sc4n3)oc2c1` [Example 93, 3-(4-(((6-Methoxy-2-(2-methoxyimidazo[2,1-b]thiadiazol-6-yl)benzofuran-4-yl)oxy)methyl)-5-methylthiazol-2-yl)-8-oxa-3-azabicyclo-[3.2.1]-octane]: 0.45 nM and 27 nM.
The matching figures for `COc1cc(OCc2csc(N3CCC4(CC3)OCCO4)n2)c2cc(-c3cn4nc(OC)sc4n3)oc2c1` [Example 103, 8-(4-(((6-Methoxy-2-(2-methoxyimidazo[2,1-b][1,3,4]thiadiazol-6-yl)benzofuran-4-yl)oxy)methyl)thiazol-2-yl)-1,4-dioxa-8-azaspiro[4.5]decane]: 0.31 nM and 24 nM.
The matching figures for `COc1cc(OCc2csc(C3(O)CCOCC3)n2)c2cc(-c3cn4nc(OC)sc4n3)oc2c1` [Example 118, 4-(4-(((6-Methoxy-2-(2-methoxyimidazo[2,1-b][1,3,4]thiadiazol-6-yl)benzofuran-4-yl)oxy)methyl)thiazol-2-yl)tetrahydro-2H-pyran-4-ol]: 0.33 nM and 25 nM.
Regarding `COc1cc(OCc2csc(C3(O)CC(C)OC(C)C3)n2)c2cc(-c3cn4nc(OC)sc4n3)oc2c1` (centres unmarked) [Example 121, 4-(4-(((6-Methoxy-2-(2-methoxyimidazo[2,1-b][1,3,4]thiadiazol-6-yl)benzofuran-4-yl)oxy)methyl)thiazol-2-yl)-2,6-dimethyltetrahydro-2H-pyran-4-ol], on PAR4 [1], the EC50 stood at 0.27 nM. In addition, half-maximal inhibition at PAR4 [2] (IC50) required 27 nM.
For the compound `COc1cc(OCc2nc(C3(F)CCOCC3)sc2C)c2cc(-c3cn4nc(OC)sc4n3)oc2c1` [Example 125, 6-(4-((2-(4-Fluorotetrahydro-2H-pyran-4-yl)-5-methylthiazol-4-yl)methoxy)-6-methoxybenzofuran-2-yl)-2-methoxyimidazo[2,1-b][1,3,4]-thiadiazole], at PAR4 [2], the midpoint of inhibition, the IC50, lay at 5.7 nM.
On to `COc1cc(OCc2csc(C3(O)CCC4(CC3)OCCO4)n2)c2cc(-c3cn4nc(OC)sc4n3)oc2c1` [Example 126, 8-(4-(((6-Methoxy-2-(2-methoxyimidazo[2,1-b][1,3,4]thiadiazol-6-yl)benzofuran-4-yl)oxy)methyl)-thiazol-2-yl)-1,4-dioxaspiro[4.5]decan-8-ol], for which, on PAR4 [1], the EC50 stood at 0.33 nM. Besides, on PAR4 [2], 1.9 nM corresponded to half-maximal inhibition (IC50).
The matching figures for `COc1cc(OCc2nc(C3(O)CCOCC3)sc2C(F)(F)F)c2cc(-c3cn4nc(OC)sc4n3)oc2c1` [Example 131, 4-(4-(((6-Methoxy-2-(2-methoxyimidazo[2,1-b][1,3,4]thiadiazol-6-yl)benzofuran-4-yl)oxy)methyl)-5-(trifluoromethyl)thiazol-2-yl)tetrahydro-2H-pyran-4-ol]: 0.66 nM and above 3000 nM.
The matching figures for `COc1cc(OCc2csc(C(O)(c3ccccc3)C(F)(F)F)n2)c2cc(-c3cn4nc(OC)sc4n3)oc2c1` (centres unmarked) [Example 137]: 1.2 nM and 23 nM.
The matching figures for `CCC(F)(c1nc(COc2cc(OC)cc3oc(-c4cn5nc(OC)sc5n4)cc23)cs1)C(F)(F)F` (centres unmarked) [Example 139]: 0.41 nM and 26 nM.
Regarding `CCC(F)(CC)c1nc(COc2cc(OC)cc3oc(-c4cn5nc(OC)sc5n4)cc23)cs1` [Example 141], the EC50 on PAR4 [1] turned out to be 0.47 nM. Besides, the IC50 on PAR4 [2] came to 24 nM.
As for `COc1cc(OCc2csc(C(O)(c3ccc(Cl)cc3)C(F)(F)F)n2)c2cc(-c3cn4nc(OC)sc4n3)oc2c1` (centres unmarked) [Example 145], the EC50 at PAR4 [1] was determined as 0.45 nM. The compound further gave a half-inhibitory concentration (IC50) at PAR4 [2] of 29 nM.
Regarding `COc1cc(OCc2csc(-c3ccccc3)n2)c2nc(-c3cn4nc(SC)sc4n3)oc2c1` [Example 201, 6-Methoxy-2-(2-(methylthio)imidazo[2,1-b][1,3,4]thiadiazol-6-yl)-4-((2-phenylthiazol-4-yl)methoxy)benzo[d]oxazole], the midpoint of inhibition against PAR4 [2], the IC50, lay at 156 nM.
For the compound `COc1cc(OCc2csc(-c3ccc(C(=O)NC(C)C)cc3)n2)c2cc(-c3cn4nc(OC)sc4n3)oc2c1` [Example 304], the EC50 at PAR4 [1] stood at 0.88 nM.
Turning to `CCNC(=O)c1ccc(-c2nc(COc3cc(OC)cc4oc(-c5cn6nc(OC)sc6n5)cc34)cs2)cc1` [Example 306], on PAR4 [1], the concentration giving a half-maximal response (EC50) stood at 1.2 nM.
Still for that read-out and setting: to `COc1cc(OCc2csc(-c3ccc(C(=O)NCCN(C)C)cc3)n2)c2cc(-c3cn4nc(OC)sc4n3)oc2c1` [Example 307] belongs 24 nM.
The same measure, in the same setting: to `CCN(C)C(=O)c1ccc(-c2nc(COc3cc(OC)cc4oc(-c5cn6nc(OC)sc6n5)cc34)cs2)cc1` [Example 308] belongs 0.64 nM.
On the same count and under the same terms, next, `CCCN(CC)C(=O)c1ccc(-c2nc(COc3cc(OC)cc4oc(-c5cn6nc(OC)sc6n5)cc34)cs2)cc1` [Example 309]: 0.54 nM; `COc1cc(OCc2csc(-c3ccc(C(=O)N(C)C(C)C)cc3)n2)c2cc(-c3cn4nc(OC)sc4n3)oc2c1` [Example 310]: 0.53 nM; `CCN(CC1CC1)C(=O)c1ccc(-c2nc(COc3cc(OC)cc4oc(-c5cn6nc(OC)sc6n5)cc34)cs2)cc1` [Example 312]: 0.77 nM.
`CCCN(C(=O)c1ccc(-c2nc(COc3cc(OC)cc4oc(-c5cn6nc(OC)sc6n5)cc34)cs2)cc1)C(C)C1CC1` (centres unmarked) [Example 313]: on PAR4 [1], the EC50 came out at 0.43 nM.
The same measure, in the same setting: to `COc1cc(OCc2csc(-c3ccc(C(=O)N(C)CC4CC4)cc3)n2)c2cc(-c3cn4nc(OC)sc4n3)oc2c1` [Example 314] belongs 0.37 nM; to `COc1cc(OCc2csc(-c3ccc(C(=O)NC4CC4)cc3)n2)c2cc(-c3cn4nc(OC)sc4n3)oc2c1` [Example 315], 1.3 nM; to `COc1cc(OCc2csc(-c3ccc(C(=O)N(C4CC4)C4CC4)cc3)n2)c2cc(-c3cn4nc(OC)sc4n3)oc2c1` [Example 316], 0.95 nM.
Regarding `COc1cc(OCc2csc(-c3ccc(C(=O)N4C(C)CCC4C)cc3)n2)c2cc(-c3cn4nc(OC)sc4n3)oc2c1` (centres unmarked) [Example 317], the EC50 at PAR4 [1] is 1.6 nM.
